The values below come from ChEMBL document CHEMBL6103575, “Design, synthesis and evaluation of (E)-1-(4-(2-(1H-pyrazol-5-yl)vinyl)phenyl) derivatives as next generation selective RET inhibitors overcoming RET solvent front mutations (G810C/R)” (Eur J Med Chem, 2025).

Data set [1] is described as follows: Induction of apoptosis in mouse BaF3 cells harboring CCDC6-RET G810R mutant assessed as viable cells at 100 nM incubated for 48 hrs by Annexin V-PE staining based flow cytometry analysis (Rvb =86.40%). Format: functional. To be noted: read-out: Activity. In general terms: In flow cytometry, cells or beads pass a laser one at a time.
Data set [2] has as its system BaF3. The data set can be described thus: Antiproliferative activity against mouse BaF3 cells harbouring CCDC6-RET G810C mutant assessed as inhibition of cell proliferation incubated for 72 hrs by CCK-8 assay. It is filed as functional, cell-based. To be noted: BaF3, 72 h. For orientation: Formazan colour is commonly taken as a measure of viable cells.
Data set [3] is described as follows: Induction of apoptosis in mouse BaF3 cells harboring CCDC6-RET G810R mutant assessed as viable cells at 300 nM incubated for 48 hrs by Annexin V-PE staining based flow cytometry analysis (Rvb =86.40%). To be noted: read-out: Activity. Format: functional.
Data set [4] in a line: Induction of apoptosis in mouse BaF3 cells harboring CCDC6-RET assessed as early apoptotic cells at 300 nM incubated for 48 hrs by Annexin V-PE staining based flow cytometry analysis (Rvb =6.21%). It is filed as functional.
Data set [5] can be described thus: Induction of cell cycle arrest in mouse BaF3 cells harboring CCDC6-RET G810R mutant assessed as accumulation of cells at G0/G1 phase at 100 nM incubated for 24 hrs by propidium iodide staining based analysis (reference value: 52.63%). Format: functional.
The target in a further data set is Ephrin type-A receptor 2 (Homo sapiens, UniProt P29317). The experiment in a line: Inhibition of EPHA2 (unknown origin).
Data set [6] is described as follows: Toxicity in SCID mouse implanted with mouse BaF3 cells assessed as change in body weight at 25 mg/kg, ip administered once daily for 10 days. Format: organism-based. To be noted: in vivo, 240 h, time 10 day.
Data set [7] in a line: Induction of apoptosis in mouse BaF3 cells harboring CCDC6-RET G810C mutant assessed as viable cells at 30 nM incubated for 48 hrs by Annexin V-PE staining based flow cytometry analysis (Rvb =86.47%). To be noted: read-out: Activity. It is filed as functional.
Data set [8] relates to BaF3. The data set can be described thus: Inhibition of RET phosphorylation in mouse BaF3 cells harboring CCDC6-RET G810C mutant incubated for 12 hrs by Western blotting analysis. Format: cell-based. To be noted: dose <= 300.0 nM. (A western blot detects proteins with antibodies after separation by electrophoresis.)

pIC50: −log10 of the molar value.

Ephrin type-A receptor 2, sequence (P29317 whole entry): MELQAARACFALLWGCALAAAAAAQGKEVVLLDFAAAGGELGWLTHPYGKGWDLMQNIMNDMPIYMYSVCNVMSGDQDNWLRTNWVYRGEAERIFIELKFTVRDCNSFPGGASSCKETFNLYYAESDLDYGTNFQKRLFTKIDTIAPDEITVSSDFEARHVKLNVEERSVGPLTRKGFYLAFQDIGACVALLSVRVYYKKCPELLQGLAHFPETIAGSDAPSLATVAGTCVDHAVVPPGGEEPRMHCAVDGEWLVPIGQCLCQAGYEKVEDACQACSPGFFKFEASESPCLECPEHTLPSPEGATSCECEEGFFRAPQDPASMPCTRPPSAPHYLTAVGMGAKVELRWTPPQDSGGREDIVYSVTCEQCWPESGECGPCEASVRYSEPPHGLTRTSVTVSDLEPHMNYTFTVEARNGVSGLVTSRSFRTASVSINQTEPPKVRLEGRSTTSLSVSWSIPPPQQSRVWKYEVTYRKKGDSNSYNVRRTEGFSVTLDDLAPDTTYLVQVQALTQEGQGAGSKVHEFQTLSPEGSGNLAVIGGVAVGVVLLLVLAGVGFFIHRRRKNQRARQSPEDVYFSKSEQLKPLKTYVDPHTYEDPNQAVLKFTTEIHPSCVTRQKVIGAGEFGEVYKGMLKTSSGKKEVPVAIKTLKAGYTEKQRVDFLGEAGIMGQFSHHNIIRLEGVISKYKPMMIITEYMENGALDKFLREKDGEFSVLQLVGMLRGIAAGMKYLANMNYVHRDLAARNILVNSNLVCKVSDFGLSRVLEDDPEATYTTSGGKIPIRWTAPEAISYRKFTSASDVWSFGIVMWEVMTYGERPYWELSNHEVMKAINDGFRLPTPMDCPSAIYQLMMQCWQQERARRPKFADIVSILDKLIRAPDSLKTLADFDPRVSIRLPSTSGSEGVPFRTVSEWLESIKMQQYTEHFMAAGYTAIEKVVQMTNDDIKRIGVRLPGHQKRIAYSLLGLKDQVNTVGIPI

As a reminder, the pIC50 is −log10 of the IC50, conventionally taken in molar units. For the compound `COc1cncc(-c2cn[nH]c2/C=C/c2ccc(NC(=O)Nc3cc(C(C)(C)C(F)(F)F)on3)c(Cl)c2)c1`, the viability at 0.1 µM in data set [1] turned out to be 74%. Besides, the pIC50 in the data set on BaF3 [2] is 7.59; on Ephrin type-A receptor 2, 7.20. Moreover, the viability at 0.3 µM in [3] amounted to 22.5%. Besides, the results for the Activity in [4], in data set [5] and in data set [6] were 54.65%, 57.96% and “Non-toxic”, respectively. Moreover, the viability at 0.03 µM in data set [7] was determined as 86.2%. For the same compound, the inhibition result in the data set on BaF3 [8] is “Dose-dependent-effect”.
